Source: ChEMBL document CHEMBL3352002, “Discovery of diethyl 2,5-diaminothiophene-3,4-dicarboxylate derivatives as potent anticancer and antimicrobial agents and screening of anti-diabetic activity: synthesis and in vitro biological evaluation. Part 1” (Eur J Med Chem, 2014)

How the values were obtained:
[1] = system: Ishikawa; test: Anticancer activity against human Ishikawa cells assessed as inhibition of tumor cell proliferation after 48 hrs by MTT assay; assay type: functional, cell-based
[2] = system: T47D; test: Anticancer activity against human T47D cells assessed as inhibition of tumor cell proliferation after 48 hrs by MTT assay; assay type: functional, cell-based
[3] = system: Staphylococcus aureus; test: Antimicrobial activity against Staphylococcus aureus ATCC 6538 assessed as inhibition zone after 24 hrs by agar well diffusion method; assay type: functional; also: test concentration or dose not given here
[4] = system: HeLa; test: Anticancer activity against human HeLa cells assessed as inhibition of tumor cell proliferation after 48 hrs by MTT assay; assay type: functional, cell-based
[5] = system: MCF7; test: Anticancer activity against human MCF7 cells assessed as inhibition of tumor cell proliferation after 48 hrs by MTT assay; assay type: functional, cell-based; settings: MCF7, 48 h
[6] = system: Candida albicans; test: Antimicrobial activity against Candida albicans ATCC 10231 assessed as inhibition zone after 24 hrs by agar well diffusion method; assay type: functional; also: test concentration or dose not given here
[7] = system: Escherichia coli; test: Antimicrobial activity against Escherichia coli ATCC 11229 assessed as inhibition zone after 24 hrs by agar well diffusion method; assay type: functional; also: test concentration or dose not given here
[8] = target: T1, Tyrosine-protein phosphatase non-receptor type 1 (Homo sapiens, UniProt P18031); test: Inhibition of PTP-1B (unknown origin) using pNPP substrate measured after 30 mins
T1 sequence (P18031 whole entry): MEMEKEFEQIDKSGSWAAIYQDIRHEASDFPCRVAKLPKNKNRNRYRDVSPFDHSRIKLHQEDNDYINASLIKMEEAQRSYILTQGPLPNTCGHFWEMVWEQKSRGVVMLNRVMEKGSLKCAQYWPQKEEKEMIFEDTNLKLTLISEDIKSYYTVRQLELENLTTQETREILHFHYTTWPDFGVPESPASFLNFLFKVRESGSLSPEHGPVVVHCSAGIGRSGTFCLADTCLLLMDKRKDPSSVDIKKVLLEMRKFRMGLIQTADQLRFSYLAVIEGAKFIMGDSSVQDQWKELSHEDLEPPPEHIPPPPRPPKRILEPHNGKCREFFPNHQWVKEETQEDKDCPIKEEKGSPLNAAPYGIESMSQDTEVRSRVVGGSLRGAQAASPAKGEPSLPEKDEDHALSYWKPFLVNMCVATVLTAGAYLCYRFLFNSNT

Structure (SMILES)	IC50 [2]	IC50 [4]	IC50 [5]	IC50 [8]	IC50 ([8]; read-out: IC50)	IC50 [1]	diameter of the inhibition zone (DIZ) [3]	diameter of the inhibition zone (DIZ) [6]	diameter of the inhibition zone (DIZ) [7]
CCOC(=O)c1c(N)sc(N)c1C(=O)OCC	11.6 µM	40.3 µM	18.6 µM	Not Active	–	46.9 µM	10 mm	<5.5 mm	<5.5 mm
CCOC(=O)c1c(N)sc(/N=C/c2ccc([N+](=O)[O-])cc2)c1C(=O)OCC	2.3 µM	14.1 µM	1.3 µM	–	6.43 µM	141 µM	8.5 mm	<5.5 mm	<5.5 mm
CCOC(=O)c1c(N)sc(/N=C/c2ccc(Br)cc2)c1C(=O)OCC	13.2 µM	25.9 µM	12.5 µM	–	6.54 µM	46.1 µM	<5.5 mm	<5.5 mm	<5.5 mm
CCOC(=O)c1c(N)sc(/N=C/c2ccc(OC)cc2)c1C(=O)OCC	31.9 µM	189 µM	16.2 µM	Not Active	–	108 µM	9 mm	9 mm	<5.5 mm
CCOC(=O)c1c(N)sc(/N=C/c2ccc(N(C)C)cc2)c1C(=O)OCC	16.7 µM	131 µM	5.7 µM	–	7.32 µM	73 µM	11.5 mm	8 mm	<5.5 mm
CCOC(=O)c1c(N)sc(/N=C/c2ccco2)c1C(=O)OCC	14.9 µM	46.7 µM	62.2 µM	Not Active	–	69.3 µM	10.5 mm	<5.5 mm	<5.5 mm
CCOC(=O)c1c(N)sc(/N=C/c2cccs2)c1C(=O)OCC	7.1 µM	21.3 µM	26.1 µM	–	14.8 µM	39.8 µM	10 mm	<5.5 mm	<5.5 mm
CCOC(=O)c1c(N)sc(/N=C/c2ccncc2)c1C(=O)OCC	8.6 µM	35.4 µM	92.2 µM	Not Active	–	119 µM	<5.5 mm	7 mm	<5.5 mm
C[C@@H]1[C@H](O)[C@@H](C)/C=C/C=C/C=C/C=C/C=C/C=C/C=C/[C@H](O[C@@H]2O[C@H](C)[C@@H](O)[C@H](N)[C@@H]2O)C[C@@H]2O[C@](O)(C[C@@H](O)C[C@@H](O)[C@H](O)CC[C@@H](O)C[C@@H](O)CC(=O)O[C@H]1C)C[C@H](O)[C@H]2C(=O)O [AMPHOTERICIN B]	–	–	–	–	–	–	15 mm	–	–
CC1(C)S[C@@H]2[C@H](NC(=O)[C@H](N)c3ccccc3)C(=O)N2[C@H]1C(=O)O [AMPICILLIN]	–	–	–	–	–	–	–	14 mm	19 mm
COc1cccc2c1C(=O)c1c(O)c3c(c(O)c1C2=O)C[C@@](O)(C(=O)CO)C[C@@H]3O[C@H]1C[C@H](N)[C@H](O)[C@H](C)O1 [DOXORUBICIN]	15.5 µM	7.04 µM	6.75 µM	–	–	9.02 µM	–	–	–

Continued by falling IC50 [2], values first:

IC50 [2]	IC50 [4]	IC50 [5]	IC50 [8]	IC50 ([8]; read-out: IC50)	Structure (SMILES)	IC50 [1]	diameter of the inhibition zone (DIZ) [3]	diameter of the inhibition zone (DIZ) [6]	diameter of the inhibition zone (DIZ) [7]
37.2 µM	41.9 µM	8.9 µM	Not Active	–	CCOC(=O)c1c(N)sc(/N=C/c2ccc(C)cc2)c1C(=O)OCC	52.5 µM	10 mm	8 mm	<5.5 mm
30.3 µM	31.2 µM	6.1 µM	Not Active	–	CCOC(=O)c1c(N)sc(/N=C/c2ccccc2)c1C(=O)OCC	37.9 µM	9 mm	8 mm	<5.5 mm
22.5 µM	30.8 µM	22.5 µM	Not Active	–	CCOC(=O)c1c(N)sc(/N=C/c2ccc(F)cc2)c1C(=O)OCC	32.1 µM	10 mm	8 mm	<5.5 mm
16 µM	4.7 µM	2.4 µM	–	7.12 µM	CCOC(=O)c1c(N)sc(/N=C/c2ccc([N+](=O)[O-])o2)c1C(=O)OCC	7.6 µM	22 mm	>22 mm	16 mm
12.1 µM	25.2 µM	6.8 µM	Not Active	–	CCOC(=O)c1c(N)sc(/N=C/c2ccc(Cl)cc2)c1C(=O)OCC	27.1 µM	<5.5 mm	<5.5 mm	<5.5 mm
